From patent publication US10669235B2, “Indole derivatives and their use as protein kinase inhibitors” (RESPIVERT LIMITED, priority 2016, dated 2020)
Where a name gives a salt, the structure may show the parent alone. Read-outs that look alike come from different tables or passages of the source.

Assays:
[1] = Pharmacokinetic measurements in rats (i.v., i.t., oral); format: in vivo; details: rat; for concentration at 0.1 h / concentration at 1.5 h / concentration at 6 h / concentration at 24 h: male, CD, lung; for concentration at 0.1 h: read-out: lung concentration (nM) at time 0.1 h; for concentration at 1.5 h: read-out: lung concentration (nM) at time 1.5 h; for concentration at 6 h: read-out: lung concentration (nM) at time 6 h; for concentration at 24 h: read-out: lung concentration (nM) at time 24 h
[2] = PAMPA permeability assay; format: in vitro ADME; details: pH 7, PAMPA; for Papp at 5 h, 10 µM: pH 7, 10 μM
[3] = target: T1, PDGFRβ (Homo sapiens (Human), UniProt P09619); test: PDGFRβ enzyme inhibition (ADP-Glo assay); format: biochemical; details: mean, n = 2 (nintedanib n = 34)
T1 sequence (P09619 33-1106): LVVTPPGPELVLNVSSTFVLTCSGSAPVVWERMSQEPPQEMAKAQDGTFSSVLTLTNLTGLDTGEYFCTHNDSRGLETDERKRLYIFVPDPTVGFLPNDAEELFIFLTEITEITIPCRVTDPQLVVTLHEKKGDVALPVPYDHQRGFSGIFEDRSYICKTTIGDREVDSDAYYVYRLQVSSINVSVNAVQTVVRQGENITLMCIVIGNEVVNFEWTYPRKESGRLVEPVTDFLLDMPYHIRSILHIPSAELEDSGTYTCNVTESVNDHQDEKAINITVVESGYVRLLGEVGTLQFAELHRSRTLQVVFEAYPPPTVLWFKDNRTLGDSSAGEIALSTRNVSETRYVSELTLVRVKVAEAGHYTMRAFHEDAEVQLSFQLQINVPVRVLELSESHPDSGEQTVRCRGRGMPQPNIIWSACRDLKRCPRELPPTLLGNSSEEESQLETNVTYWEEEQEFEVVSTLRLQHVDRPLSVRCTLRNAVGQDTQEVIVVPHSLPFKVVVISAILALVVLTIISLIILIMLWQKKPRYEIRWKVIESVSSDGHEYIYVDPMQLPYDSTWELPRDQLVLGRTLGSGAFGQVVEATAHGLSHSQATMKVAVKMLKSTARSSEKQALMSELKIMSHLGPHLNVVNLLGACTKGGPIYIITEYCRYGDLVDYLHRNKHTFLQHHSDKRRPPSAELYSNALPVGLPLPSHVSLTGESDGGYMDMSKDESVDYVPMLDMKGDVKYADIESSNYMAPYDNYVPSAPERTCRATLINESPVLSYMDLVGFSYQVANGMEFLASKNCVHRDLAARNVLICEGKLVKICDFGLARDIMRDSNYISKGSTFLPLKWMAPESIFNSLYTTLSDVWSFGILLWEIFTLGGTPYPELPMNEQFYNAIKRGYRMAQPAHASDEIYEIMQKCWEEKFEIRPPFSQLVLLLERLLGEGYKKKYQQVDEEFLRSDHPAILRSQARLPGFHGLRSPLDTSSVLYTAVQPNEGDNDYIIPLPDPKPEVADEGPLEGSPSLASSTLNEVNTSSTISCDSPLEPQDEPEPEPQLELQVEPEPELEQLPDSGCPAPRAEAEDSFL

[4] = target: T1, PDGFRβ; test: PDGF-BB induced phosphorylation of PDGFRβ in fibroblasts (MRC5, HTRF); format: cell-based; details: MRC5 cells, PDGFBB stimulation; read-out: PDGFBB-induced PDGFRβ phosphorylation in MRC5 cells (IC50)
[5] = test system: MRC5 cells; test: Cell viability assay in MRC5 cells (MTT)
[6] = i.t. dose 0.1 (nintedanib 0.42)
[7] = i.v. dose 0.1 (nintedanib 0.42)

Compound: COC(=O)c1cc2c(cc1C)/C(=C(/Nc1ccc(C(=O)NCCN3CCN(C)CC3)cc1)c1ccccc1)C(=O)N2 [Example 4, (Z)-Methyl 5-methyl-3-(((4-((2-(4-methylpiperazin-1-yl)ethyl)carbamoyl)phenyl)amino)(phenyl)methylene)-2-oxoindoline-6-carboxylate]
- concentration at 0.1 h ([1]; iv): 959 nM
- concentration at 1.5 h ([1]; iv): 641 nM
- concentration at 6 h ([1]; iv): 156 nM
- concentration at 24 h ([1]; iv): 88 nM
- concentration at 0.1 h ([1]; other: intra-tracheal): 3490 nM
- concentration at 1.5 h ([1]; other: intra-tracheal): 1210 nM
- concentration at 6 h ([1]; other: intra-tracheal): 475 nM
- concentration at 24 h ([1]; other: intra-tracheal): 370 nM
- BAL % administered dose at time 0.1 h [1, 6]: 3.4%
- BAL % administered dose at time 1.5 h [1, 6]: 0.4%
- BAL % administered dose at time 6 h [1, 6]: 0.4%
- BAL % administered dose at time 24 h [1, 6]: 0.3%
- BAL % administered dose at time 0.1 h [1, 7]: 0.07%
- BAL % administered dose at time 1.5 h [1, 7]: 0.04%
- BAL % administered dose at time 6 h [1, 7]: BQL
- BAL % administered dose at time 24 h [1, 7]: BQL
- recovery at 5 hr, 10 μM [2]: 76%
- Papp at 5 h, 10 µM [2]: 0.0216 ×10⁻⁶ cm/s
- Ki [3]: 11.6 nM
- IC50 [4]: 14 nM

Compound: COC(=O)c1cc2c(cc1C)/C(=C(/Nc1ccc(C(=O)NCCC(=O)N3CCN(C)CC3)cc1)c1ccccc1)C(=O)N2 [Example 10, (Z)-Methyl 5-methyl-3-(((4-((3-(4-methylpiperazin-1-yl)-3-oxopropyl)carbamoyl)phenyl)amino) (phenyl)methylene)-2-oxoindoline-6-carboxylate]
- Cell viability at 100 nM (%) [5]: 85%
- Cell viability at 300 nM (%) [5]: 118.9%
- Cell viability at 1000 nM (%) [5]: 108.4%
- recovery at 5 hr, 10 μM [2]: 70.4%
- Papp at 5 h, 10 µM [2]: 0.0428 ×10⁻⁶ cm/s
- Ki [3]: 12.7 nM
- IC50 [4]: 15.9 nM

Compound: CNC(=O)CN1CCN(C(=O)c2ccc(N/C(=C3\C(=O)Nc4cc(C(=O)OC)c(C)cc43)c3ccccc3)cc2)CC1 [Example 11, (Z)-Methyl 5-methyl-3-(((4-(4-(2-(methylamino)-2-oxoethyl)piperazine-1-carbonyl)phenyl)amino) (phenyl)methylene)-2-oxoindoline-6-carboxylate]
- Cell viability at 100 nM (%) [5]: 82%
- Cell viability at 300 nM (%) [5]: 67.8%
- Cell viability at 1000 nM (%) [5]: 28.5%
- recovery at 5 hr, 10 μM [2]: 93.2%
- Papp at 5 h, 10 µM [2]: 0.0479 ×10⁻⁶ cm/s
- Ki [3]: 10.6 nM
- IC50 [4]: 2.75 nM

Compound: COC(=O)c1cc2c(cc1C)/C(=C(/Nc1ccc(C(=O)NC3CCN(CCO)CC3)cc1)c1ccccc1)C(=O)N2 [Example 13, (Z)-Methyl 3-(((4-((1-(2-hydroxyethyl)piperidin-4-yl)carbamoyl)phenyl)amino) (phenyl)methylene)-5-methyl-2-oxoindoline-6-carboxylate]
- Cell viability at 100 nM (%) [5]: 84.3%
- Cell viability at 300 nM (%) [5]: 93.2%
- Cell viability at 1000 nM (%) [5]: 102.1%
- recovery at 5 hr, 10 μM [2]: 76.3%
- Papp at 5 h, 10 µM [2]: 0.0439 ×10⁻⁶ cm/s
- Ki [3]: 10.4 nM
- IC50 [4]: 1.25 nM

Compound: COC(=O)c1cc2c(cc1C)/C(=C(/Nc1ccc(C(=O)N3CCN(C)CC3)cc1)c1ccccc1)C(=O)N2 [Example 17, (Z)-Methyl 5-methyl-3-(((4-(4-methylpiperazine-1-carbonyl)phenyl)amino)(phenyl)methylene)-2-oxoindoline-6-carboxylate]
- Cell viability at 100 nM (%) [5]: 76.2%
- Cell viability at 300 nM (%) [5]: 63.6%
- Cell viability at 1000 nM (%) [5]: 34.1%
- recovery at 5 hr, 10 μM [2]: 59.8%
- Papp at 5 h, 10 µM [2]: 24.6 ×10⁻⁶ cm/s
- Ki [3]: 9.39 nM
- IC50 [4]: 4.48 nM

Compound: COC(=O)c1cc2c(cc1C)/C(=C(/Nc1ccc(C(=O)N3CCN(CCO)CC3)cc1)c1ccccc1)C(=O)N2 [Example 19, (Z)-Methyl 3-(((4-(4-(2-hydroxyethyl)piperazine-1-carbonyl)phenyl)amino)(phenyl)methylene)-5-methyl-2-oxoindoline-6-carboxylate, 0.5 formate]
- Cell viability at 100 nM (%) [5]: 85.5%
- Cell viability at 300 nM (%) [5]: 71.8%
- Cell viability at 1000 nM (%) [5]: 21.9%
- recovery at 5 hr, 10 μM [2]: 61.8%
- Papp at 5 h, 10 µM [2]: 0.589 ×10⁻⁶ cm/s
- Ki [3]: 8.79 nM
- IC50 [4]: 5.04 nM

Compound: COCCN1CCC(NC(=O)c2ccc(N/C(=C3\C(=O)Nc4cc(C(=O)OC)c(C)cc43)c3ccccc3)cc2)CC1 [Example 20, (Z)-Methyl 3-(((4-((1-(2-methoxyethyl)piperidin-4-yl)carbamoyl)phenyl)amino)(phenyl)methylene)-5-methyl-2-oxoindoline-6-carboxylate]
- Cell viability at 100 nM (%) [5]: 92.6%
- Cell viability at 300 nM (%) [5]: 91.7%
- Cell viability at 1000 nM (%) [5]: 87.2%
- recovery at 5 hr, 10 μM [2]: 104%
- Papp at 5 h, 10 µM [2]: 0.0165 ×10⁻⁶ cm/s
- Ki [3]: 19.1 nM
- IC50 [4]: 38.9 nM

Compound: COC(=O)c1cc2c(cc1C)/C(=C(/Nc1ccc(C(=O)NCCCN3CCN(C)CC3)cc1)c1ccccc1)C(=O)N2 [Example 21, (Z)-Methyl-5-methyl-3-(((4-((3-(4-methylpiperazin-1-yl)propyl)carbamoyl)phenyl)amino)(phenyl)methylene)-2-oxoindoline-6-carboxylate, formate]
- Cell viability at 100 nM (%) [5]: 139.6%
- Cell viability at 300 nM (%) [5]: 127.3%
- Cell viability at 1000 nM (%) [5]: 98.8%
- recovery at 5 hr, 10 μM [2]: 76%
- Papp at 5 h, 10 µM [2]: 0.0442 ×10⁻⁶ cm/s
- Ki [3]: 6.11 nM
- IC50 [4]: 35.1 nM

Compound: COC(=O)c1cc2c(cc1C)/C(=C(/Nc1ccc(C(=O)NCCCN(C)C)cc1)c1ccccc1)C(=O)N2 [Example 22, (Z)-Methyl 3-(((4-((3-(dimethylamino)propyl)carbamoyl)phenyl)amino)(phenyl)methylene)-5-methyl-2-oxoindoline-6-carboxylate, 0.5 formate]
- Cell viability at 100 nM (%) [5]: 72.3%
- Cell viability at 300 nM (%) [5]: 58.8%
- Cell viability at 1000 nM (%) [5]: 48.8%
- recovery at 5 hr, 10 μM [2]: 101%
- Papp at 5 h, 10 µM [2]: 0.046 ×10⁻⁶ cm/s
- Ki [3]: 9.29 nM
- IC50 [4]: 12.3 nM

Compound: COC(=O)c1cc2c(cc1C)/C(=C(/Nc1ccc(S(=O)(=O)NCCN(C)C)cc1)c1ccccc1)C(=O)N2 [Example 25, (Z)-Methyl 3-(((4-(N-(2-(dimethylamino)ethyl)sulfamoyl)phenyl)amino)(phenyl)methylene)-5-methyl-2-oxoindoline-6-carboxylate, formate]
- Cell viability at 100 nM (%) [5]: 83.2%
- Cell viability at 300 nM (%) [5]: 74.7%
- Cell viability at 1000 nM (%) [5]: 55.4%
- recovery at 5 hr, 10 μM [2]: 105%
- Papp at 5 h, 10 µM [2]: 11 ×10⁻⁶ cm/s
- Ki [3]: 11.7 nM
- IC50 [4]: 24.2 nM

Compound: COC(=O)c1cc2c(cc1C)/C(=C(/Nc1ccc(S(=O)(=O)N3CCN(CCO)CC3)cc1)c1ccccc1)C(=O)N2 [Example 26, (Z)-Methyl 3-(((4-((4-(2-hydroxyethyl)piperazin-1-yl)sulfonyl)phenyl)amino)(phenyl)methylene)-5-methyl-2-oxoindoline-6-carboxylate, formate]
- Cell viability at 100 nM (%) [5]: 84.4%
- Cell viability at 300 nM (%) [5]: 91.6%
- Cell viability at 1000 nM (%) [5]: 57.6%
- recovery at 5 hr, 10 μM [2]: 96.2%
- Papp at 5 h, 10 µM [2]: 10.3 ×10⁻⁶ cm/s
- Ki [3]: 45 nM
- IC50 [4]: 18.1 nM

Compound: COC(=O)c1cc2c(cc1C)/C(=C(/Nc1ccc(C(=O)N[C@H]3CCCN(C)C3)cc1)c1ccccc1)C(=O)N2 [Example 27, (S,Z)-Methyl 5-methyl-3-(((4-((1-methylpiperidin-3-yl)carbamoyl)phenyl)amino)(phenyl)methylene)-2-oxoindoline-6-carboxylate, 0.5 formate]
- Cell viability at 100 nM (%) [5]: 106.5%
- Cell viability at 300 nM (%) [5]: 112.6%
- Cell viability at 1000 nM (%) [5]: 82.9%
- recovery at 5 hr, 10 μM [2]: 54.3%
- Papp at 5 h, 10 µM [2]: 16.8 ×10⁻⁶ cm/s
- Ki [3]: 18 nM
- IC50 [4]: 43 nM

Compound: CNC(=O)CN(C)CCNC(=O)c1ccc(N/C(=C2\C(=O)Nc3cc(C(=O)OC)c(C)cc32)c2ccccc2)cc1 [Example 54, (Z)-Methyl 5-methyl-3-(((4-((2-(methyl(2-(methylamino)-2-oxoethyl)amino)ethyl)carbamoyl)phenyl)amino)(phenyl)methylene)-2-oxoindoline-6-carboxylate]
- Cell viability at 100 nM (%) [5]: 110.2%
- Cell viability at 300 nM (%) [5]: 105.5%
- Cell viability at 1000 nM (%) [5]: 92.4%
- Ki [3]: 15.8 nM
- IC50 [4]: 5.04 nM

Compound: COC(=O)c1cc2c(cc1C)/C(=C(/Nc1ccc(C(=O)NCCN3CCNC(=O)C3)c(F)c1)c1ccccc1)C(=O)N2 [Example 55, (Z)-Methyl 3-(((3-fluoro-4-((2-(3-oxopiperazin-1-yl)ethyl)carbamoyl)phenyl)amino)(phenyl)methylene)-5-methyl-2-oxoindoline-6-carboxylate]
- Cell viability at 100 nM (%) [5]: 79.4%
- Cell viability at 300 nM (%) [5]: 101.5%
- Cell viability at 1000 nM (%) [5]: 101.7%
- Ki [3]: 25.1 nM
- IC50 [4]: 9.13 nM

Compound: COC(=O)c1cc2c(cc1C)/C(=C(/Nc1ccc(C(=O)NCCN3CCCNC(=O)C3)cc1)c1ccccc1)C(=O)N2 [Example 56, (Z)-Methyl 5-methyl-2-oxo-3-(((4-((2-(3-oxo-1,4-diazepan-1-yl)ethyl)carbamoyl)phenyl)amino)(phenyl)methylene)indoline-6-carboxylate]
- Cell viability at 100 nM (%) [5]: 100.0%
- Cell viability at 300 nM (%) [5]: 104.9%
- Cell viability at 1000 nM (%) [5]: 102.0%
- Ki [3]: 12.6 nM
- IC50 [4]: 9.16 nM
